Measurements: PMC8395260, “Co-Aggregation of S100A9 with DOPA and Cyclen-Based Compounds Manifested in Amyloid Fibril Thickening without Altering Rates of Self-Assembly” (International Journal of Molecular Sciences, 2021)
Non-standard residues stand in square brackets, D forms with d. Residues, ends and D or L forms follow the SMILES beside them. Dopa = N[C@@H](Cc1ccc(O)c(O)c1)C(=O)O

Tests used:
[1] = biological target: T1, S100A9 (Homo sapiens, UniProt P06702); experiment: ThT fluorescence kinetics of S100A9 amyloid formation in the presence of compounds; type: biochemical; conditions: for k, kinetic rate constant of S100A9 amyloid formation: 75 μM S100A9, 20 µM ThT, PBS pH 7.4, 42 °C, isodesmic polymerization fit, triplicate; for k/kS100A9: 75 μM S100A9, PBS pH 7.4, 42 °C
T1 construct: made in house; host or cells: E. coli
T1 sequence (P06702 1-114): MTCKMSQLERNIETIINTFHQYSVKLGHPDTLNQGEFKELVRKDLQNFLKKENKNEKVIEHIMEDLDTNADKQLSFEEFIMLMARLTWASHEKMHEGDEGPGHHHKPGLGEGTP
Text: The amyloid formation of S100A9 in the absence and presence of DOPA and cyclen-based compounds was monitored by ThT fluorescence and is presented in Figure 2. The amyloid formation correlates with the increase of the ThT fluorescence, and the initial parts of the fibrillation kinetic curves were fitted by using an isodesmic polymerization model to derive the kinetic rates; this model has previously been used in kinetic analysis of S100A9 amyloid self-assembly.
Figure 2 Kinetics of S100A9 amyloid formation in the absence and presence of DOPA and cyclen-based compounds monitored by ThT fluorescence. (a) Amyloid kinetics monitored at the ratio of S100A9 to corresponding compound of 1:1 and (b) 1:10, respectively. Symbols indicating the experimental data points for S100A9 alone or with respective compounds are shown in the caption and the corresponding lines indicate the fitting with the isodesmic polymerization model. The equation for isodesmic polymerization fitting is shown in ((b) inset). 75 μM S100A9, PBS, pH 7.4, and 42 °C.
ThT dye is known to bind specifically to β-sheet-containing amyloid structures and thus enables quantification of the kinetics of amyloid self-assembly. ThT assay was performed as described previously. First, 75 μM S100A9 was transferred into Nunc 96U black well plates with transparent bottoms and then 20 µM ThT was added to each well. The compounds dissolved in PBS were added to S100A9 solution with molar ratios of 1:1 and 1:10, respectively. Sample volumes were kept at 200 μL per well. The plates were immediately covered, placed into a Tecan F200 PRO plate reader, and incubated at 42 °C with 432 rpm orbital shaking every 10 min. ThT fluorescence was recorded every 10 min. Filters at 430 and 495 nm wavelengths with a 20 nm band width each were used for excitation and emission, respectively. Each sample was incubated in triplicate. ThT fluorescence intensities were normalized.

[2] = ThT incubation of individual compounds (amyloid self-assembly of the compounds); type: physicochemical; conditions: 75 μM compound, PBS pH7.4, 42 °C, same period as S100A9 kinetics
Method: Figure S1. Time dependence of Thioflavin-T fluorescence changes during its incubation with S100A9 and DOPA and Cyclen-based compounds. Thioflavin-T fluorescence in arbitrary units is shown along y-axis, time in minutes – along x-axis. Increase in Thioflavin-T fluorescence in the presence of 75 μM S100A9 reflects its amyloid self-assembly and shown in brown. By contrast, there were no increase in Thioflavin-T fluorescence upon incubation with 75 μM of corresponding compounds as […]
green line, for DOPA-H-H-DOPA – by orange, DOPA-D-H – by chartreuse, H-E-Cyclen – by red and […]
assembly of these compounds under the conditions of our experiments. PBS, pH7.4 and 42 °C.
(1 picture or pasted object on this page, not shown here)

[3] = tested on: S100A9 amyloid fibrils; experiment: AFM imaging of S100A9 fibrils, fibril height distributions; type: biochemical; conditions: PBS pH 7.4, 42 °C; for S100A9 fibril morphology change (AFM): molar ratio 1:1; for median height of S100A9 fibrils (AFM): molar ratio 1:10, text, S100A9 alone ca. 1.6 nm
Method: In order to complement the kinetic analysis, we also monitored the S100A9 amyloid formation by AFM imaging (Figure 3). The amyloid fibrils of S100A9 alone that developed after 100 h of incubation in PBS, pH 7.4, and 42 °C were very flexible, relatively short, i.e., within 200–600 nm length, and also characterized by a narrow distribution of the heights with a median at ca. 1.6 nm in the AFM cross-sections. In the presence of all DOPA-based compounds, the fibrils of S100A9 become thicker with median heights of ca. 2.0–2.2 nm, and generally longer (Figure 3). […] At the molar ratio of S100A9 to DOPA-based compounds of 1:10, the height of fibrils became even thicker, shifting towards 2.2–2.8 nm median height and in the case of DOPA-D-H-DOPA to 3.0–3.2 nm (Figure 3), while their lengths remained about the same as at the 1:1 molar ratio.
Figure 3 AFM imaging of S100A9 fibrils in the absence and presence of DOPA and cyclen-based compounds and the analysis of fibril height distributions. (a) Representative AFM image of S100A9 fibrils incubated alone. (b,c) Distribution of fibril heights measured in AFM cross-sections. The same distribution is shown in both columns to facilitate the comparison with the following height distributions carried out in the presence of compounds. (d,g,j,m,p) Representative AFM images of S100A9 fibrils in the presence of DOPA and cyclen-based compounds at a 1:1 molar ratio of S100A9 to compound. (e,h,k,n,q) Distributions of fibril heights measured in AFM cross-sections at the S100A9 to compound molar ratio of 1:1 and (f,i,l,o,r) at molar ratio of 1:10. Image sizes are 2.5 × 2.5 μm. The compounds and molar ratios are indicated above the figures. Samples were incubated for 50 h in PBS, pH 7.4, and 42 °C. […]
S100A9 protein was expressed in E. coli and purified as described previously. Freshly dissolved S100A9 in PBS, pH 7.4 was used in all measurements. Lyophilized S100A9 was dissolved on ice in PBS buffer at pH 7.4. Then, S100A9 samples were filtered using a 0.22 µm spin membrane filter to remove any preformed aggregates. These solutions were directly subjected to experiments. To produce amyloids, S100A9 was incubated in PBS, pH 7.4, and 42 °C. The cyclic compounds (Figure 1) were dissolved in PBS at pH 7.4, and their stock solutions were kept frozen prior to measurements.
AFM imaging was performed by using a BioScope Catalyst AFM (Bruker; Phoenix, AZ, USA), operating in a peak force mode in air. The scan rate was 0.51 Hz and the resolution was 512 × 512 pixels. Bruker MSLN and SLN cantilevers were used in all measurements. Imaging was also conducted using a PicoPlus AFM (Molecular Imaging), equipped with a 100 μm scanner, operating in tapping mode in air. The resonance frequency was set in 170 to 190 kHz range, scan rate of 1 Hz, and resolution of 512 × 512 pixels. […]

[4] = biological target: T1, S100A9; experiment: Titration of S100A9 with compounds followed by intrinsic fluorescence; conditions: intrinsic Trp 88 fluorescence, single binding site model, legend: 75 μM S100A9, PBS pH 7.4, 20 °C, method: 1 μM S100A9, 5 nM to 2.4 μM compound, 3 h room temperature, triplicates; for Kd: read-out: apparent dissociation constant Kd
Method: S100A9 was titrated by each compound of interest following the changes in intrinsic fluorescence intensity, since S100A9 has one aromatic residue: Trp 88. The fitting was performed using a single binding site model to determine the apparent dissociation constant for each compound. […] A twice larger Kd was determined only for DOPA-D-H-DOPA binding.
Figure 4 Binding of DOPA and cyclen-based compounds to native S100A9 followed by intrinsic fluorescence. (a–e) Normalized titrations of S100A9 by corresponding compounds. Each compound is indicated above corresponding figure (a–e) and their Kd in captions. Symbols indicate the experimental data points and lines the fitting with a single binding site model. 75 μM S100A9, PBS, pH 7.4, and 20 °C.
First, 1 μM S100A9 was incubated in PBS, pH 7.4, room temperature for 3 h in the absence or presence of 5 nM to 2.4 μM of the studied compounds prior to fluorescence measurements. The final volume was kept at 400 μL for all samples. The fluorescence emission spectra were recorded using a Jasco spectrofluorometer FP 6500 (Japan), setting the excitation at 296 nm and emission at 350 nm wavelengths, respectively, with a 3 nm band-width on both the excitation and emission. The measurements were performed in triplicates. Fitting of the normalized titration curves was performed by using a single site binding model.

| Structure (SMILES) | k, kinetic rate constant of S100A9 amyloid formation ([1]; S100A9:compound 1:1) | k/kS100A9 ([1]; S100A9:compound 1:1) | k, kinetic rate constant of S100A9 amyloid formation ([1]; S100A9:compound 1:10) | k/kS100A9 ([1]; S100A9:compound 1:10) | ThT fluorescence upon incubation of compound alone (amyloid self-assembly) [2] | S100A9 fibril morphology change (AFM) [3] | median height of S100A9 fibrils (AFM) [3] | apparent dissociation constant Kd [4] | Kd [4] |
| --- | --- | --- | --- | --- | --- | --- | --- | --- | --- |
| N[C@@H](Cc1ccc(O)c(O)c1)C(=O)N[C@@H](CC(=O)O)C(=O)N[C@@H](Cc1c[nH]cn1)C(=O)N[C@@H](Cc1ccc(O)c(O)c1)C(=O)O [DOPA-D-H-DOPA] (H-[Dopa]DH[Dopa]-OH) | 60000 M⁻¹ s⁻¹ | 0.91 | 66000 M⁻¹ s⁻¹ | 1 | flat lines close to zero | tended to clump together, forming large clustered aggregates | 3.0–3.2 nm | sub-micromolar range |  |
| N[C@@H](Cc1ccc(O)c(O)c1)C(=O)N[C@@H](CC(=O)O)C(=O)N[C@@H](Cc1c[nH]cn1)C(=O)O [DOPA-D-H] (H-[Dopa]-Asp-His-OH) | 63000 M⁻¹ s⁻¹ | 0.95 | 45000 M⁻¹ s⁻¹ | 0.69 | flat lines close to zero | tended to clump together, forming large clustered aggregates |  | sub-micromolar range | 110 ± 40 nM |
| N[C@@H](Cc1ccc(O)c(O)c1)C(=O)N[C@@H](Cc1c[nH]cn1)C(=O)N[C@@H](Cc1c[nH]cn1)C(=O)N[C@@H](Cc1ccc(O)c(O)c1)C(=O)O [DOPA-H-H-DOPA] (H-[Dopa]HH[Dopa]-OH) | 77000 M⁻¹ s⁻¹ | 1.17 | 134000 M⁻¹ s⁻¹ |  | flat lines close to zero |  |  | sub-micromolar range |  |
| O=C(CN1CCNCCNCCNCC1)N[C@@H](Cc1ccc(O)c(O)c1)C(=O)O [DOPA-cyclen] | 62000 M⁻¹ s⁻¹ | 0.93 | 133000 M⁻¹ s⁻¹ |  | flat lines close to zero |  |  | sub-micromolar range | 100 ± 40 nM |
| O=C(O)CC[C@H](NC(=O)CN1CCNCCNCCNCC1)C(=O)N[C@@H](Cc1c[nH]cn1)C(=O)O [H-E-cyclen] | 69000 M⁻¹ s⁻¹ | 1.05 | 48000 M⁻¹ s⁻¹ | 0.72 | flat lines close to zero | did not lead to thickening of amyloid fibrils | 2.0 nm | sub-micromolar range | 90 ± 50 nM |
